Test results published in publication PMC9304322, “Targeting retinoic acid receptor alpha-corepressor interaction activates chaperone-mediated autophagy and protects against retinal degeneration” (Nature Communications, 2022).
“And” between values parts separate entries of the source, which are not always exact repeats. Equal values may be shown once.

Legend:
[1] = system: neuroblastoma cell line N2a expressing the KFERQ-PS-Dendra reporter; assay: CMA activity, KFERQ-PS-Dendra reporter in N2a cells; format: cell-based, mouse; design: CMA activity, mean (Fig. S2a): unit not given here
Method: (§1) Cells were transduced with lentivirus carrying the KFERQ-PS-Dendra reporter as before. Cells were photoactivated by exposure to a 3.5 mA (current constant) light emitting diode (LED: Norlux, 405 nm) for 3 min and then plated in glass-bottom 96 well plates. At the desired times, cells were fixed with 4% PFA and imaged using high-content microscopy (Operetta system, Perkin Elmer). Images were quantified using the manufacturer’s software in a minimum of 1,200 cells in 9 independent fields per well. […] This was particularly important in the case of primary human cells where the efficiency of transduction was ~65%. To avoid confounding effects for drug-induced changes in cell volume or adherence to the plate that could bring a fraction of the cells per field outside of focus, we set a threshold to count only […] that have at least 1/10 of the average number of […] detected in the untreated wells for each cell type (3–4 puncta/cell in the case of NIH3T3 and N2a cells and 5 puncta/cell in primary human fibroblasts).

[2] = system: primary human fibroblast expressing the KFERQ-PS-Dendra reporter; assay: CMA activity, KFERQ-PS-Dendra reporter in primary human fibroblasts; format: cell-based; design: key to CMA activity, mean (Fig. S2c): puncta per cell
Method: as §1

[3] = system: CMA network components in NIH3T3 cells; assay: qPCR of CMA network components and CMA activation score; format: cell-based, mouse; design: LAMP2A mRNA level / HSP90AB1 mRNA level / HSP40 mRNA level / RAC1 mRNA level / AKT1 mRNA level / AKT2 mRNA level / CTSA mRNA level / NFATC1 mRNA level / HSC70 mRNA level / NCOR1 mRNA level / NFE2L2 mRNA level / RAB11A mRNA level / RARa mRNA level / HSP90AA1 mRNA level / EEF1A1 mRNA level / RICTOR mRNA level: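 fold of untreated cells after 20 µM for 24 h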; key to CMA activation score: weighted (LAMP-2A ×2), directed (±1) average of CMA network expression;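 as to AKT1 mRNA level: fold of untreated cells after 20 µM for 24 h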;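 as to AKT2 mRNA level: fold of untreated cells after 20 µM for 24 h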;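 as to CTSA mRNA level: fold of untreated cells after 20 µM for 24 h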;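 as to HSC70 mRNA level: fold of untreated cells after 20 µM for 24 h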;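 as to HSP40 mRNA level: fold of untreated cells after 20 µM for 24 h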;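 as to HSP90AA1 mRNA level: fold of untreated cells after 20 µM for 24 h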;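 as to HSP90AB1 mRNA level: fold of untreated cells after 20 µM for 24 h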;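 as to LAMP2A mRNA level: fold of untreated cells after 20 µM for 24 h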;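 as to NCOR1 mRNA level: fold of untreated cells after 20 µM for 24 h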;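 as to NFATC1 mRNA level: fold of untreated cells after 20 µM for 24 h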;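 as to NFE2L2 mRNA level: fold of untreated cells after 20 µM for 24 h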;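 as to PHLPP1 mRNA level: fold of untreated cells after 20 µM for 24 h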;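 as to RAB11A mRNA level: fold of untreated cells after 20 µM for 24 h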;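 as to RAC1 mRNA level: fold of untreated cells after 20 µM for 24 h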;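 as to RARa mRNA level: fold of untreated cells after 20 µM for 24 h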
Method: RNA was extracted from individual retinas or tissue sections (brain, liver). Total RNA from retinas was extracted using TRIzol Reagent (Invitrogen, # 15596-018), and reverse transcription was performed using the High-Capacity cDNA Reverse Transcription Kit (Applied Biosystems, # 4374966) according to the manufacturer’s instructions. Quantitative real-time PCR was performed in a Light Cycler 480 Instrument (Roche) with Taqman LightCycler 480 probes Master Mix (Roche, #4887301001) using Taqman assays (Life Technologies). For cells in culture, RNA was extracted using RNeasy Plus Mini Kit (Qiagen, #74034), and reverse transcription was performed using Superscript III (Invitrogen, #18080051). Quantitative RT-PCR analysis were performed using Power SYBR Green PCR Master Mix (Applied Biosystems, #4368708) on a StepOne Plus Real-Time PCR System (Applied Biosystems). Mm01184405_m1 probe (Thermofisher) was used for rhodopsin and the sequence of all the other probes used for qPCR is included in Supplementary Table 2.
CMA index[14] was calculated using data set from[23]–[25]. Briefly, each element of the CMA network[13] has attributed a weight. As LAMP-2A is the rate-limiting component of CMA, it was given a weight of 2. Every other element received a weight of 1. Then, every element was attributed direction score that is +1 or −1 based on the known effect of a given element on CMA activity. The score was then calculated as the weighted/ directed average of expression counts of every element of the CMA network.

[4] = Fig. 2d (left), individual replicate values, one sample t test

Clc1ccc2c(c1)OCC(c1ccc(-c3ccccc3)cc1)=N2 [CA39]
CMA activity, mean relative to concentration 0 = 1 (Fig. S2b) ([1]; 12+12w, concentration 0.2): 0.9934 | CMA activity, mean relative to concentration 0 = 1 (Fig. S2b) ([1]; 12+12w, concentration 2): 0.9832 | CMA activity, mean relative to concentration 0 = 1 (Fig. S2b) ([1]; 12+12w, concentration 5): 3.155 | CMA activity, mean relative to concentration 0 = 1 (Fig. S2b) ([1]; 12+12w, concentration 10): 2.605 | CMA activity, mean relative to concentration 0 = 1 (Fig. S2b) ([1]; 12+12w, concentration 20): 4.196 | CMA activity, mean relative to concentration 0 = 1 (Fig. S2b) ([1]; 12+12w, concentration 30): 3.752 | CMA activity, mean (Fig. S2a) ([1]; 12h, concentration 0.02): 3.028 | CMA activity, mean (Fig. S2a) ([1]; 12h, concentration 0.2): 4.51 | CMA activity, mean relative to concentration 0 = 1 (Fig. S2b) ([1]; 12h, concentration 0.2): 1.03 | CMA activity, mean (Fig. S2a) ([1]; 12h, concentration 2): 4.84 | CMA activity, mean relative to concentration 0 = 1 (Fig. S2b) ([1]; 12h, concentration 2): 1.106 | CMA activity, mean (Fig. S2a) ([1]; 12h, concentration 5): 10.9424 | CMA activity, mean relative to concentration 0 = 1 (Fig. S2b) ([1]; 12h, concentration 5): 2.5 | CMA activity, mean (Fig. S2a) ([1]; 12h, concentration 10): 9.785 | CMA activity, mean relative to concentration 0 = 1 (Fig. S2b) ([1]; 12h, concentration 10): 2.2356 | CMA activity, mean (Fig. S2a) ([1]; 12h, concentration 20): 12.4415 | CMA activity, mean relative to concentration 0 = 1 (Fig. S2b) ([1]; 12h, concentration 20): 2.842 | CMA activity, mean (Fig. S2a) ([1]; 12h, concentration 30): 12.3771 | CMA activity, mean relative to concentration 0 = 1 (Fig. S2b) ([1]; 12h, concentration 30): 2.828 | CMA activity, mean (Fig. S2a) ([1]; 12h, concentration 40): 18.3499 | CMA activity, mean (Fig. S2a) ([1]; 12h, concentration 50): 17.0288 | CMA activity, mean (Fig. S2a) ([1]; 12h, concentration 60): 19.2922 | CMA activity, mean (Fig. S2a) ([1]; 24h, concentration 0.02): 3.481 | CMA activity, mean (Fig. S2a) ([1]; 24h, concentration 0.2): 5.502 | CMA activity, mean relative to concentration 0 = 1 (Fig. S2b) ([1]; 24h, concentration 0.2): 1.258 | CMA activity, mean (Fig. S2a) ([1]; 24h, concentration 2): 4.784 | CMA activity, mean relative to concentration 0 = 1 (Fig. S2b) ([1]; 24h, concentration 2): 1.094 | CMA activity, mean (Fig. S2a) ([1]; 24h, concentration 5): 12.5789 | CMA activity, mean relative to concentration 0 = 1 (Fig. S2b) ([1]; 24h, concentration 5): 2.876 | CMA activity, mean (Fig. S2a) ([1]; 24h, concentration 10): 14.7898 | CMA activity, mean relative to concentration 0 = 1 (Fig. S2b) ([1]; 24h, concentration 10): 3.382 | CMA activity, mean (Fig. S2a) ([1]; 24h, concentration 20): 22.8096 | CMA activity, mean relative to concentration 0 = 1 (Fig. S2b) ([1]; 24h, concentration 20): 5.216 | CMA activity, mean (Fig. S2a) ([1]; 24h, concentration 30): 25.6157 | CMA activity, mean relative to concentration 0 = 1 (Fig. S2b) ([1]; 24h, concentration 30): 5.858 | CMA activity, mean (Fig. S2a) ([1]; 24h, concentration 40): 31.0418 | CMA activity, mean (Fig. S2a) ([1]; 24h, concentration 50): 34.0174 | CMA activity, mean (Fig. S2a) ([1]; 24h, concentration 60): 32.9288 | CMA activation in neuron-related mouse cells ([1]; in words): efficiently activated CMA | CMA activity, mean (Fig. S2c) ([2]; concentration 0.02): 24.0456 | CMA activity, mean (Fig. S2c) ([2]; concentration 0.2): 28.2677 | CMA activity, mean (Fig. S2c) ([2]; concentration 2): 18.5469 | CMA activation in human cells ([2]; in words): efficiently activated CMA | AKT1 mRNA level [3, 4]: 1.27 and 1.30 and 1.45 and 1.16 and 1.03 and 1.84 and 1.28 | AKT2 mRNA level [3, 4]: 1.32 and 1.30 and 1.24 and 1.01 and 1.08 and 1.88 and 1.04 | CTSA mRNA level [3, 4]: 1.42 and 1.82 and 1.76 and 1.16 and 1.21 and 1.47 and 1.18 | EEF1A1 mRNA level [3, 4]: 1.63 and 1.19 and 0.99 and 1.36 and 0.64 and 1.12 | HSC70 mRNA level [3, 4]: 1.22 and 1.61 and 1.44 and 1.21 and 1.29 and 2.10 and 1.42 | HSP40 mRNA level [3, 4]: 1.09 and 1.23 and 1.16 and 0.96 and 0.74 and 1.03 | HSP90AA1 mRNA level [3, 4]: 1.17 and 1.01 and 0.95 and 0.86 and 0.74 and 0.72 | HSP90AB1 mRNA level [3, 4]: 1.00 and 0.99 and 0.98 and 1.04 and 0.83 and 0.75 | LAMP2A mRNA level [3, 4]: 1.75 and 1.44 and 1.56 and 1.42 and 1.32 and 1.48 | NCOR1 mRNA level [3, 4]: 1.09 and 1.39 and 1.22 and 0.82 and 0.71 and 0.95 and 0.89 | NFATC1 mRNA level [3, 4]: 1.14 and 1.53 and 1.30 and 0.80 and 1.03 and 1.25 and 1.28 | NFE2L2 mRNA level [3, 4]: 0.96 and 1.16 and 1.02 and 0.72 and 0.80 and 1.15 and 1.10 | PHLPP1 mRNA level [3, 4]: 1.27 and 1.65 and 1.69 and 3.21 and 1.20 and 1.48 and 1.51 | RAB11A mRNA level [3, 4]: 1.05 and 1.19 and 0.95 and 0.84 and 1.00 and 1.21 and 1.07 | RAC1 mRNA level [3, 4]: 1.38 and 1.77 and 1.43 and 1.78 and 1.31 and 1.54 and 1.42 | RARa mRNA level [3, 4]: 0.55 and 1.08 and 1.05 and 0.89 and 0.84 and 0.93 and 0.88 | RICTOR mRNA level [3, 4]: 1.22 and 1.28 and 0.83 and 0.86 and 1.60 and 1.10 | CMA activation score ([3]; Fig. 2d (right), individual replicate values): 0.6107 and 0.1532 and -0.08737 and 0.08765 | predicted CMA score compared to AR7 ([3]; NIH3T3, 20μM for 24 h): higher
